Like-named read-outs stand apart in the source and are kept apart here.
Tests used:
Assay in all cases: Test A postemergence
Assay type in all cases: in vivo
[1] = system: Galium (catchweed bedstraw, Galium aparine); details: Galium, post-emergence, 240 h; for pest or weed control at 125 g/ha: 125 g ai/ha, visual injury vs untreated controls after approx. 10 d, 0 = no effect, 100 = complete control, read-out: Galium plant response rating (0 to 100 scale); for pest or weed control at 500 g/ha: 500 g ai/ha
Outline: (§1)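 Visual injury scores from 0, no effect, to 100, complete control, were assigned versus untreated controls roughly 10 d after treatment in the greenhouse. Test chemicals, formulated with surfactant in a non-phytotoxic solvent, were applied to planted seeds as a preemergence soil spray or postemergence to one- to two-leaf plants 2 to 10 cm tall, in loam–sand soil.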

[2] = system: barnyardgrass (Echinochloa crus-galli); details: Echinochloa crus-galli, post-emergence, 240 h; for pest or weed control at 125 g/ha: 125 g ai/ha, visual injury vs untreated controls after approx. 10 d, 0 = no effect, 100 = complete control, read-out: Barnyardgrass plant response rating (0 to 100 scale); for pest or weed control at 500 g/ha: 500 g ai/ha
Outline: as §1

[3] = system: giant foxtail (Setaria faberii); details: Setaria faberi, post-emergence, 240 h; for pest or weed control at 125 g/ha: 125 g ai/ha, visual injury vs untreated controls after approx. 10 d, 0 = no effect, 100 = complete control, read-out: Foxtail, Giant plant response rating (0 to 100 scale); for pest or weed control at 500 g/ha: 500 g ai/ha
Outline: as §1

corn (Zea mays) = details: Zea mays, post-emergence, 240 h; for plant injury at 125 g/ha: 125 g ai/ha, visual injury vs untreated controls after approx. 10 d, 0 = no effect, 100 = complete control, read-out: Corn plant response rating (0 to 100 scale); for plant injury at 125 g/ha / plant injury at 500 g/ha: postemergence; for plant injury at 500 g/ha / Corn plant response rating (crop injury, 0 = no effect, 100 = complete kill) at 500 g/ha: 500 g ai/ha; for plant injury at 500 g/ha: 0 to 100 scale, 0 is no effect, 100 is complete control, read-out: Corn plant response rating; for Corn plant response rating (crop injury, 0 = no effect, 100 = complete kill) at 500 g/ha: Postemergence, visual injury, 0 to 100 scale (0 no effect, 100 complete control), approx. 10 d
Outline: as §1

[4] = system: pigweed (Amaranthus retroflexus); details: Amaranthus retroflexus, post-emergence, 240 h; for pest or weed control at 125 g/ha: 125 g ai/ha, visual injury vs untreated controls after approx. 10 d, 0 = no effect, 100 = complete control, read-out: Pigweed plant response rating (0 to 100 scale); for pest or weed control at 500 g/ha: 500 g ai/ha
Outline: as §1

[5] = postemergence, 0 to 100 scale, 0 is no effect, 100 is complete control, read-out: Galium plant response rating
[6] = postemergence, 0 to 100 scale, 0 is no effect, 100 is complete control, read-out: Barnyardgrass plant response rating
[7] = postemergence, 0 to 100 scale, 0 is no effect, 100 is complete control, read-out: Foxtail, Giant plant response rating
[8] = postemergence, 0 to 100 scale, 0 is no effect, 100 is complete control, read-out: Pigweed plant response rating
[9] = Postemergence, visual injury, 0 to 100 scale (0 no effect, 100 complete control), approx. 10 d, read-out: Plant response rating, Galium
[10] = Postemergence, visual injury, 0 to 100 scale (0 no effect, 100 complete control), approx. 10 d, read-out: Plant response rating, Barnyardgrass
[11] = Postemergence, visual injury, 0 to 100 scale (0 no effect, 100 complete control), approx. 10 d, read-out: Plant response rating, Foxtail, Giant
[12] = Postemergence, visual injury, 0 to 100 scale (0 no effect, 100 complete control), approx. 10 d, read-out: Plant response rating, Pigweed

Compound	pest or weed control at 125 g/ha ([1]; postemergence) [%]	pest or weed control at 500 g/ha [1, 5] [%]	pest or weed control at 125 g/ha ([2]; postemergence) [%]	pest or weed control at 500 g/ha [2, 6] [%]	pest or weed control at 125 g/ha ([3]; postemergence) [%]	pest or weed control at 500 g/ha [3, 7] [%]	plant injury at 125 g/ha (corn (Zea mays)) [%]	plant injury at 500 g/ha (corn (Zea mays)) [%]	pest or weed control at 125 g/ha ([4]; postemergence) [%]	pest or weed control at 500 g/ha [4, 8] [%]	pest or weed control at 500 g/ha [1, 9] [%]	pest or weed control at 500 g/ha [2, 10] [%]	pest or weed control at 500 g/ha [3, 11] [%]	Corn plant response rating (crop injury, 0 = no effect, 100 = complete kill) at 500 g/ha (corn (Zea mays)) [%]	pest or weed control at 500 g/ha [4, 12] [%]
CN1CC[C@H](c2ccc(C(F)(F)F)cc2)[C@@H](C(=O)Nc2cccc(Cl)c2F)C1=O [Compound 1228]	20	60	90	90	80	80	20	70	20	50					
CN1C[C@H](c2ccc(C#N)cc2)[C@@H](C(=O)Nc2ccc(F)c(F)c2F)C1=O [Compound 1229]	40	50	100	100	90	90	0	0	40	60					
CSc1ccccc1NC(=O)[C@H]1C(=O)N(C)C[C@@H]1c1ccc(C#N)cc1 [Compound 1230]	20	60	30	70	60	80	0	0	30	60					
Cc1cccc([C@H]2CN(C)C(=O)[C@@H]2C(=O)Nc2ccc(F)c(F)c2F)c1 [Compound 1231]	50	70	80	80	80	90	70	80	0	50					
Cc1cccc([C@H]2CN(C)C(=O)[C@@H]2C(=O)Nc2cccc(F)c2C)c1 [Compound 1233]	20	60	80	80	80	90	70	80	0	20					
O=C1NC[C@H](c2ccc(C(F)(F)F)cc2)C1C(=O)Nc1c(F)cccc1CO (some centres unmarked) [Compound 1243]	0	0	0	0	0	0	0	0	0	0					
Cc1cc([C@H]2CNC(=O)[C@@H]2C(=O)Nc2ccccc2S(C)(=O)=O)ccc1Cl [Compound 1246]	50		50		20		0		0		60	80	20	40	20
CN1C[C@H](c2cccc(C(F)(F)F)c2)[C@@H](C(=O)Nc2ccc(F)cc2C(F)(F)F)C1=O [Compound 1250]	40		70		80		40		0		60	90	80	70	30
